Source: patent publication US9663496B2, “AMPK-activating heterocyclic compounds and methods for using the same” (Rigel Pharmaceuticals, Inc., priority 2010, dated 2017)

Target: AMPK
Assay: AMPK activation, enzyme-linked immunosorbent assay
Assay type: biochemical
Conditions: EC50 for AMPK activation, ELISA
Outline: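 Activation by each compound is measured using a conventional commercial immunoassay kit.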

EC50 | Compound
< 500 nM | N#Cc1ccc(CN2CCC(NC(=O)c3ccc(C(=O)NC4CCN(c5ccc(C#N)cc5)CC4)cn3)CC2)cc1 [Compound 166, N2-(1-(4-cyanobenzyl)piperidin-4-yl)-N5-(1-(4-cyanophenyl)piperidin-4-yl)pyridine-2,5-dicarboxamide]
< 500 nM | N#Cc1ccc(O[C@H]2CC[C@@H](NC(=O)c3ccc(C(=O)N4CCC(Oc5ccc(F)cc5)CC4)cn3)CC2)cc1 [Compound 167, N-((cis)-4-(4-cyanophenoxy)cyclohexyl)-5-(4-(4-fluorophenoxy)piperidine-1-carbonyl)picolinamide]
< 500 nM | N#Cc1ccc(O[C@H]2CC[C@H](NC(=O)c3ccc(C(=O)N4CCC(C(=O)c5ccc(F)cc5)CC4)cn3)CC2)cc1 [Compound 168, N-((trans)-4-(4-cyanophenoxy)cyclohexyl)-5-(4-(4-fluorobenzoyl)piperidine-1-carbonyl)picolinamide]
500 to 1000 nM | N#Cc1ccc(O[C@H]2CC[C@H](NC(=O)c3ccc(C(=O)N4CCC(Oc5ccc(F)cc5)CC4)cn3)CC2)cc1 [Compound 169, N-((trans)-4-(4-cyanophenoxy)cyclohexyl)-5-(4-(4-fluorophenoxy)piperidine-1-carbonyl)picolinamide]
> 10000 nM | O=C(Nc1ccc(C(=O)N2CCN(Cc3ccc(F)cc3)CC2)cn1)c1ccc(-c2ccccc2)cc1 [Compound 170, N-(5-(4-(4-fluorobenzyl)piperazine-1-carbonyl)pyridin-2-yl)biphenyl-4-carboxamide]
< 500 nM | COc1ccc(C(=O)C2CCN(C(=O)c3ccc(C(=O)N[C@H]4CC[C@@H](Oc5ccc(C#N)cc5)CC4)nc3)CC2)cc1 [Compound 171, N-((cis)-4-(4-cyanophenoxy)cyclohexyl)-5-(4-(4-methoxybenzoyl)piperidine-1-carbonyl)picolinamide]
< 500 nM | COc1ccc(OC2CCN(C(=O)c3ccc(C(=O)N[C@H]4CC[C@H](Oc5ccc(C#N)cc5)CC4)nc3)CC2)cc1 [Compound 172, N-((trans)-4-(4-cyanophenoxy)cyclohexyl)-5-(4-(4-methoxyphenoxy)piperidine-1-carbonyl)picolinamide]
< 500 nM | N#Cc1ccc(CN2CCC(C(=O)Nc3ccc(C(=O)N4CCC(Oc5ccc(F)cc5)CC4)cn3)CC2)cc1 [Compound 173, 1-(4-cyanobenzyl)-N-(5-(4-(4-fluorophenoxy)piperidine-1-carbonyl)pyridin-2-yl)piperidine-4-carboxamide]
< 500 nM | COc1ccc(OC2CCN(C(=O)c3ccc(C(=O)N[C@H]4CC[C@@H](Oc5ccc(C#N)cc5)CC4)nc3)CC2)cc1 [Compound 174, N-((cis)-4-(4-cyanophenoxy)cyclohexyl)-5-(4-(4-methoxyphenoxy)piperidine-1-carbonyl)picolinamide]
< 500 nM | N#Cc1ccc(CN2CCC(C(=O)Nc3ccc(C(=O)N4CCC(C(=O)c5ccc(F)cc5)CC4)cn3)CC2)cc1 [Compound 175, 1-(4-cyanobenzyl)-N-(5-(4-(4-fluorobenzoyl)piperidine-1-carbonyl)pyridin-2-yl)piperidine-4-carboxamide]
1000 to 5000 nM | N#Cc1ccc(O[C@H]2CC[C@@H](NC(=O)c3ccc(C(=O)N4CC[C@H](Oc5ccc(F)cc5)C4)cn3)CC2)cc1 [Compound 176, N-((cis)-4-(4-cyanophenoxy)cyclohexyl)-5-((S)-3-(4-fluorophenoxy)pyrrolidine-1-carbonyl)picolinamide]
1000 to 5000 nM | O=C(Nc1ccc(C(=O)N2CCN(Cc3ccc(F)cc3)CC2)cn1)c1ccc(Oc2ccc(F)cc2)nc1 [Compound 177, N-(5-(4-(4-fluorobenzyl)piperazine-1-carbonyl)pyridin-2-yl)-6-(4-fluorophenoxy) nicotinamide]
< 500 nM | COc1ccc(C(=O)C2CCN(C(=O)c3ccc(C(=O)NC4CCN(Cc5ccc(F)cc5)CC4)nc3)CC2)cc1 [Compound 178, N-(1-(4-fluorobenzyl)piperidin-4-yl)-5-(4-(4-methoxybenzoyl)piperidine-1-carbonyl)picolinamide]
< 500 nM | O=C(NC1CCN(Cc2ccc(F)cc2)CC1)c1ccc(C(=O)N2CCC(Oc3ccc(C(F)(F)F)cc3)CC2)cn1 [Compound 179, N-(1-(4-fluorobenzyl)piperidin-4-yl)-5-(4-(4-(trifluoromethyl)phenoxy)piperidine-1-carbonyl)picolinamide]
< 500 nM | O=C(NC1CCN(Cc2ccc(F)cc2)CC1)c1ccc(C(=O)N2CCC(Oc3ccc(F)cc3)CC2)cn1 [Compound 180, N-(1-(4-fluorobenzyl)piperidin-4-yl)-5-(4-(4-fluorophenoxy)piperidine-1-carbonyl)picolinamide]
< 500 nM | O=C(NC1CCN(Cc2ccc(F)cc2)CC1)c1ccc(C(=O)N2CCC(C(=O)c3ccc(F)cc3)CC2)cn1 [Compound 181, 5-(4-(4-fluorobenzoyl)piperidine-1-carbonyl)-N-(1-(4-fluorobenzyl)piperidin-4-yl)picolinamide]
< 500 nM | O=C(NC1CCN(Cc2ccc(F)cc2)CC1)c1ccc(C(=O)N2CC[C@H](Oc3ccc(F)cc3)C2)cn1 [Compound 182, (S)-N-(1-(4-fluorobenzyl)piperidin-4-yl)-5-(3-(4-fluorophenoxy)pyrrolidine-1-carbonyl)picolinamide]
< 500 nM | COc1ccc(OC2CCN(C(=O)c3ccc(C(=O)NC4CCN(Cc5ccc(F)cc5)CC4)nc3)CC2)cc1 [Compound 183, N-(1-(4-fluorobenzyl)piperidin-4-yl)-5-(4-(4-methoxyphenoxy)piperidine-1-carbonyl)picolinamide]
< 500 nM | COc1ccc(O[C@H]2CC[C@@H](NC(=O)c3ccc(C(=O)N4CCC(C(=O)c5ccc(OC)cc5)CC4)cn3)CC2)cc1 [Compound 184, 5-(4-(4-methoxybenzoyl)piperidine-1-carbonyl)-N-((cis)-4-(4-methoxyphenoxy)cyclohexyl)picolinamide]
< 500 nM | COc1ccc(O[C@H]2CC[C@@H](NC(=O)c3ccc(C(=O)N4CCC(Oc5ccc(C(F)(F)F)cc5)CC4)cn3)CC2)cc1 [Compound 185, N-((cis)-4-(4-methoxyphenoxy)cyclohexyl)-5-(4-(4-(trifluoromethyl)phenoxy)piperidine-1-carbonyl)picolinamide]
< 500 nM | COc1ccc(OC2CCN(C(=O)c3ccc(C(=O)N[C@H]4CC[C@@H](Oc5ccc(OC)cc5)CC4)nc3)CC2)cc1 [Compound 186, N-((cis)-4-(4-methoxyphenoxy)cyclohexyl)-5-(4-(4-methoxyphenoxy)piperidine-1-carbonyl)picolinamide]
1000 to 5000 nM | O=C(c1ccc(N2CCC(Oc3ccc(C(F)(F)F)cc3)CC2)nc1)N1CCN(Cc2ccc(F)cc2)CC1 [Compound 187, (4-(4-fluorobenzyl)piperazin-1-yl)(6-(4-(4-(trifluoromethyl)phenoxy)piperidin-1-yl)pyridin-3-yl)methanone]
500 to 1000 nM | N#Cc1ccc(OC2CCN(c3ccc(C(=O)N4CCN(Cc5ccc(F)cc5)CC4)cn3)CC2)cc1 [Compound 188, 4-(1-(5-(4-(4-fluorobenzyl)piperazine-1-carbonyl)pyridin-2-yl)piperidin-4-yloxy)benzonitrile]
1000 to 5000 nM | COc1ccc(C(=O)C2CCN(c3ccc(C(=O)N4CCN(Cc5ccc(F)cc5)CC4)cn3)CC2)cc1 [Compound 189, (4-(4-fluorobenzyl)piperazin-1-yl)(6-(4-(4-methoxybenzoyl)piperidin-1-yl)pyridin-3-yl)methanone]
